Patent publication US20100203114A1, “MICELLE ENCAPSULATION OF THERAPEUTIC AGENTS” (WARF - Wisconsin Alumni Research Foundation, priority 2007, published 2010)
Like-named read-outs stand apart in the source and are kept apart here.

Assays:
[1] = dogs; cited from earlier work
[2] = cited from earlier work
[3] = test system: PC-3 human prostate cells; experiment: In vitro cytotoxicity, resazurin dye; type: cell-based; settings: Prostate cell, 72 hours
Description: (§1) In vitro cytotoxicity studies. […] Cell lines were plated in 96-well plates at an initial density of 3000 cells per well in 90 μL of appropriate media, and maintained at 37° C. under a 5% CO2 atmosphere. […] Drug-loaded micelles or micelles alone were formulated in MilliQ water (following dialysis of DMSO to form the micelles). It was not necessary to dilute the samples further before addition to wells. […] Following, the metabolic rate of cells was determined by using resazurin dye (Sigma-Aldrich).

[4] = test system: MCF-7 human breast cancer cells; experiment: In vitro cytotoxicity, resazurin dye; type: cell-based; settings: MCF7, 72 hours
Description: as §1

[5] = 17-AAG loading in PEG-PLA micelles prepared by dialysis (HPLC); type: physicochemical
Description: Preparation and characterization of drug loaded PEG-PLA micelles. […] For example, 5 mg of 17-AAG and 45 mg of PEG-PLA (10:90 w/w) were dissolved in 10 mL DMAc. The resulting solution was dialyzed against H2O in 3500 MWCO tubing (SpectraPor). Resulting micelles were centrifuged at 5000 g's for 10 min to precipitate unincorporated drug. […] Micelle solutions were concentrated by rotary evaporation at reduced pressure at room temperature, followed by centrification (5000 g's for 10 minutes).
The loading experiments were investigated at 10% w/w to evaluate the suitability of PEG-PLA micelles for solubilizing 17-AAG.

MCF-7 = settings: reported by the National Cancer Institute; cited from earlier work

Compound | maximum tolerated dose [1] | solubility of 17-AAG ([2]; according to the National Cancer Institute) | aqueous solubility [2] | water solubility ([2]; neutral pH) | IC50 ([3]; n = 6, read-out: PC-3 IC50) | IC50 ([3]; read-out: IC50 in PC-3) | IC50 ([4]; n = 6, read-out: MCF-7 IC50) | IC50 ([4]; read-out: IC50 in MCF-7) | mol 17-AAG:mol PEG-PLA ([5]; 0.3 mM PEG-PLA solution) | 17-AAG solubilized ([5]; 0.3 mM PEG-PLA solution, initial 17-AAG 0.45 mg/mL (11.4% w/w)) | 17-AAG loaded ([5]; 0.3 mM PEG-PLA, weight 17-AAG versus total weight of carrier) | 17-AAG loading efficiency ([5]; PEG-PLA (12:6 kDa) micelles) | drug loading ([5]; PEG-PLA (12:12 kDa) micelles, with and without alpha-tocopherol) | time after which drug precipitated out of solution ([5]; micelles incorporating 1:1 alpha-tocopherol to drug, even at 4° C.) | Efficiency ([5]; total drug solubilized versus initial drug concentration) | IC50 (MCF-7)
C=CCNC1=C2C[C@@H](C)C[C@H](OC)[C@H](O)[C@@H](C)/C=C(\C)[C@H](OC(N)=O)[C@@H](OC)/C=C\C=C(/C)C(=O)NC(=CC1=O)C2=O [17-AAG, 17-allylamino-17-demethoxygeldanamycin] | 100-200 mg/m^2/day | ~0.01 mg/mL | about 0.1 mg/mL | about 0.1 mg/mL | 0.074 ± 0.014 µM | 0.074 ± 0.014 µM | 0.022 ± 0.014 µM | 0.022 ± 0.014 µM | 0.73±0.09 | 0.083 ± 0.012 mg/mL | 0.024 ± 0.003 mg/mg | 19±3 % w/w | < 0.5 mg/mL | 4 to 5 h | 19 ± 3% loaded | 0.0126 µM
CO[C@H]1/C=C\C=C(/C)C(=O)NC2=CC(=O)C(NCCN(C)C)=C(C[C@@H](C)C[C@H](OC)[C@H](O)[C@@H](C)/C=C(\C)[C@@H]1OC(N)=O)C2=O [17-DMAG, 17-dimethylamino-ethylamino-17-demethoxygeldanamycin] | 8 mg/m^2/day | – | – | – | – | – | – | – | – | – | – | – | – | – | – | –
